Results published in ChEMBL document CHEMBL5107992, “Development of potent non-acylhydrazone inhibitors of intestinal sodium-dependent phosphate transport protein 2b (NaPi2b)” (Bioorg Med Chem, 2022).
Converted amounts (≈) assume the structure as drawn.

Legend:
[1] = molecular target: T1, Sodium-dependent phosphate transport protein 2B (Homo sapiens, UniProt O95436); test: Inhibition of human NaPi2b transfected in human KJMGER8 cells assessed as reduction in H2[33P]O4 uptake incubated for 60 mins by TopCount scintillation counting method; type: cell-based
T1 sequence (O95436 whole entry): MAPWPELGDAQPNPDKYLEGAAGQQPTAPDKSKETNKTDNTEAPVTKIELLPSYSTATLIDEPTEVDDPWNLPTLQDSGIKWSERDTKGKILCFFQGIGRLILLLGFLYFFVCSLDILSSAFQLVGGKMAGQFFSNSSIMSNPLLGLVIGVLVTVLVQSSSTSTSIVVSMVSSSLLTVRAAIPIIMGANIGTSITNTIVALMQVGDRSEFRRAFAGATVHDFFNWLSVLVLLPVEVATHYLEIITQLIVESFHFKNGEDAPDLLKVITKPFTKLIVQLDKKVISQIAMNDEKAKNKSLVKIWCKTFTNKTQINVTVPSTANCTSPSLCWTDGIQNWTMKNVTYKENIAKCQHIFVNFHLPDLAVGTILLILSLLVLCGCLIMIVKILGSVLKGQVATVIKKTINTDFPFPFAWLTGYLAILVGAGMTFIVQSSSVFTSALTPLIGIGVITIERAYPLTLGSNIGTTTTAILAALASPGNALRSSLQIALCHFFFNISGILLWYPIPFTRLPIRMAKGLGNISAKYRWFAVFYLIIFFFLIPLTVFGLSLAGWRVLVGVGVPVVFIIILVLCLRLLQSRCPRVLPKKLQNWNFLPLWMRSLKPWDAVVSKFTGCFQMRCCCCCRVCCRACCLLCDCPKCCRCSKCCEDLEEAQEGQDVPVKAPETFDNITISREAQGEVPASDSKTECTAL

[2] = Aqueous solubility of compound in PBS buffer at pH 7.4; type: physicochemical
[3] = Intestinal availability in Sprague-Dawley rat; type: ADME
[4] = Aqueous solubility of compound in PBS buffer at pH 6; type: physicochemical
[5] = Membrane permeability of compound; type: ADME; settings: not told; read-out: permeability
[6] = Intestinal availability in rat at 3 mg/kg, po measured after 120 mins by LC/MS-MS analysis; type: ADME, organism-based; settings: in vivo, 2 h

Compound | IC50 [1] [nM] | solubility [2] [µM] | also measured
CCc1ccc(NC(=O)c2c(NC(=O)c3cccc(COCCOCCOCCOCCOCCOCCO)c3)sc3c2CCC(C)(C)C3)cc1 | < 100 | 0.39 (≈ 0.284 µg/mL) | –
Cc1cc(NC(=O)c2c(NC(=O)c3cccc(OCCOCCOCCOCCOCCOCCOCC(=O)O)c3)sc3c2CCC(C)(C)C3)ccc1CCc1ccc(-c2ncco2)cc1 | 43 | 79 (≈ 73.3 µg/mL) | –
Cc1cc(NC(=O)c2c(NC(=O)c3cccc(OCCOCCOCCOCCOCCOCCOCC(=O)O)c3)sc3c2CCC(C)(C)C3)ccc1CCc1ccc(-c2nccs2)cc1 | 288 | 87 (≈ 82.1 µg/mL) | –
COCCN(CCOCCOCCOCCOCCOCCOCc1cccc(C(=O)Nc2sc3c(c2C(=O)N/N=C/c2ccc(Cl)c(C(F)(F)F)c2)CCC(C)(C)C3)c1)CC(=O)O | – | – | FaFg [3]: 0.1%
COC(=O)c1ccc(CCc2ccc(NC(=O)c3c(NC(=O)c4cccc(OCCOCCOCCOCCOCCOCCOCC(=O)O)c4)sc4c3CCC(C)(C)C4)cc2C)cc1 | 71 | 116 (≈ 107 µg/mL) | –
COC(=O)c1ccc(CCc2ccc(NC(=O)c3c(NC(=O)c4cccc(OCCOCCOCCOCCOCCOCCO)c4)sc4c3CCC(C)(C)C4)cc2)cc1 | < 100 | 1.6 (≈ 1.36 µg/mL) | –
CC1(C)CCc2c(sc(NC(=O)c3cccc(OCCOCCOCCOCCOCCOCCO)c3)c2C(=O)Nc2ccc(CCc3ccc(C(=O)O)cc3)cc2)C1 | < 100 | 115 (≈ 95.8 µg/mL) | –
CC1(C)CCc2c(sc(NC(=O)c3cccc(COCCOCCOCCOCCOCCOCCO)c3)c2C(=O)Nc2ccc(Cc3ccccc3)cc2)C1 | < 100 | 0.48 (≈ 0.379 µg/mL) | –
Cc1nnc(-c2ccc(CCc3ccc(NC(=O)c4c(NC(=O)c5cccc(CSCCOCCOCCOCCOCCOCCOCCOCCOCCC(=O)O)c5)sc5c4CCC(C)(C)C5)cc3)cc2)o1 | 24 | 91 (≈ 96.6 µg/mL) | –
COc1ccc(NC(=O)c2c(NC(=O)c3cccc(COCCOCCOCCOCCOCCOCCO)c3)sc3c2CCC(C)(C)C3)cc1 | 1140 | 2.3 (≈ 1.68 µg/mL) | –
CC1(C)CCc2c(sc(NC(=O)c3cccc(COCCOCCOCCOCCOCCOCCO)c3)c2C(=O)Nc2ccccc2)C1 | 1400 | 81 (≈ 56.6 µg/mL) | –
COC(=O)c1ccc(CCc2ccc(NC(=O)c3c(NC(=O)c4cccc(COCCOCCOCCOCCOCCOCCO)c4)sc4c3CCC(C)(C)C4)cc2C)cc1 | < 100 | 0.72 (≈ 0.63 µg/mL) | –
Cc1nnc(-c2ccc(CCc3ccc(NC(=O)c4c(NC(=O)c5cccc(COCCOCCOCCOCCOCCOCCOCC(=O)O)c5)sc5c4CCC(C)(C)C5)cc3)cc2)o1 | 103 | 62 (≈ 58.5 µg/mL) | –
CCC(CC)N(CCN(C)C(=O)CCC(=O)NCCOCCOCCOCCO)Cc1cccc(C(=O)Nc2sc3c(c2C(=O)c2cnn(-c4ccc(Cl)c(C(F)(F)F)c4)c2)CCC(C)(C)C3)c1 | – | – | FaFg [3]: 0.2%
CC1(C)CCc2c(sc3nc(-c4cccc(COCCOCCOCCOCCOCCOCCO)c4)oc(=O)c23)C1 | 2880 | 36 (≈ 21.8 µg/mL) | –
Cc1nnc(-c2ccc(CCc3ccc(NC(=O)c4c(NC(=O)c5cccc(COCCOCCOCCOCC(=O)O)c5)sc5c4CCC(C)(C)C5)cc3)cc2)o1 | 61 | 156 (≈ 127 µg/mL) | –
Cc1nnc(-c2ccc(CCc3ccc(NC(=O)c4c(NC(=O)c5cccc(CN(C)CCOCCOCCOCCC(=O)O)c5)sc5c4CCC(C)(C)C5)cc3)cc2)o1 | 14 | 96 (≈ 80.5 µg/mL) | solubility [4]: 52 µM (≈ 43.6 µg/mL); Papp [5]: < 0.09 ×10⁻⁶ cm/s; FaFg [6]: 5.9%
